The record followed here is the supplement of paper PMC10307832.

What all share (assay): relative viability (nuclei count vs DMSO), 5 days (fraction); higher = more cells survive
Compound in experiment [1]: COc1ncc(-c2ccc3nccc(-c4ccnnc4)c3c2)cc1NS(=O)(=O)c1ccc(F)cc1F [Omipalisib]
Summed up: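 Lung cancer cell lines were seeded into 1536-well plates, kept overnight at 37 °C and pinned with five library-drug doses (not always all listed) spaced by √10. After 5 days, nuclei were Hoechst-stained, imaged at 4× and counted with MetaXpress. Viability is treated-well nuclei over vehicle-well nuclei, taken as a median across plates. Plates needed control CV below 25% and at least one doubling.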

Compound in experiment [2]: COc1ncc(-c2ccc3nccc(-c4ccnnc4)c3c2)cc1NS(=O)(=O)c1ccc(F)cc1F [Omipalisib] + CC(=O)Nc1cccc(-n2c(=O)n(C3CC3)c(=O)c3c(Nc4ccc(I)cc4F)n(C)c(=O)c(C)c32)c1 [Trametinib] (partner 0.02 µM)
The essentials: (§1)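 Relative viability divides the nuclei count in treated wells by that in vehicle wells. Lung cancer cell lines were seeded in 1536-well plates, dosed by pin tool the next day, and fixed and stained after 5 days in one step with final 0.05% Triton X-100, 1% formaldehyde and 1 ug/ml Hoechst. Dosing was a single drug or a fixed anchor-drug dose plus five library-drug doses (not always all listed) in √10 steps, and values are medians of duplicate plates imaged at 4×.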

Compound in experiment [3]: COc1ncc(-c2ccc3nccc(-c4ccnnc4)c3c2)cc1NS(=O)(=O)c1ccc(F)cc1F [Omipalisib] + N=C(N)NC(=N)NCCc1ccccc1 [Phenformin] (partner 250 µM)
The essentials:
as §1

Compound in experiment [4]: COc1ncc(-c2ccc3nccc(-c4ccnnc4)c3c2)cc1NS(=O)(=O)c1ccc(F)cc1F [Omipalisib] + Nc1ncn([C@H]2C[C@H](O)[C@@H](CO)O2)c(=O)n1 [Decitabine] (partner 2 µM)
Summed up:
as §1

Compound in experiment [5]: COc1ncc(-c2ccc3nccc(-c4ccnnc4)c3c2)cc1NS(=O)(=O)c1ccc(F)cc1F [Omipalisib] + O=C(CCCCCCC(=O)Nc1ccccc1)NO [Vorinostat] (partner 1 µM)
Summed up: as §1

Compound in experiment [6]: COc1ncc(-c2ccc3nccc(-c4ccnnc4)c3c2)cc1NS(=O)(=O)c1ccc(F)cc1F [Omipalisib] + CC(C)C[C@H](NC(=O)[C@H](Cc1ccccc1)NC(=O)c1cnccn1)B(O)O [Bortezomib] (partner 0.002 µM)
Summed up: as §1

On to NCI-H1793, for which the relative viability in experiment [1] (0.0003 µM) worked out at 0.74; in experiment [1] (0.003 µM) it was 0.514; in experiment [1] (0.03 µM), 0.317; in experiment [2] (first compound 0.0003 µM), 0.375; in experiment [2] (first compound 0.003 µM) it was 0.334; in experiment [2] (first compound 0.03 µM) it was 0.194. Besides, the relative viability in experiment [3] (first compound 0.0003 µM) is 0.372; in experiment [3] (first compound 0.003 µM), 0.22; in experiment [3] (first compound 0.03 µM), 0.188; in experiment [4] (first compound 0.0003 µM), 0.398; in experiment [4] (first compound 0.003 µM), 0.282; in experiment [4] (first compound 0.03 µM), 0.214. Moreover, the relative viability in experiment [5] (first compound 0.0003 µM) turned out to be 0.649; in experiment [5] (first compound 0.003 µM), 0.438; in experiment [5] (first compound 0.03 µM) it was 0.231.

HCC-15: the relative viability came to 0.973 in experiment [1] (0.0003 µM); 0.691 in experiment [1] (0.003 µM); 0.7 in experiment [1] (0.03 µM); 0.32 in experiment [2] (first compound 0.0003 µM); 0.207 in experiment [2] (first compound 0.003 µM); 0.165 in experiment [2] (first compound 0.03 µM). Also, the relative viability was found to be 0.988 in experiment [6] (first compound 0.0003 µM); 0.848 in experiment [6] (first compound 0.003 µM); 0.813 in experiment [6] (first compound 0.03 µM); 0.427 in experiment [3] (first compound 0.0003 µM); 0.372 in experiment [3] (first compound 0.003 µM); 0.306 in experiment [3] (first compound 0.03 µM). In addition, the relative viability in experiment [4] (first compound 0.0003 µM) came to 0.591; in experiment [4] (first compound 0.003 µM) it was 0.394; in experiment [4] (first compound 0.03 µM) it was 0.372; in experiment [5] (first compound 0.0003 µM), 0.816; in experiment [5] (first compound 0.003 µM), 0.651; in experiment [5] (first compound 0.03 µM), 0.489.

As to ChaGo-K-1, the relative viability is 0.978 in experiment [1] (0.0003 µM); 0.917 in experiment [1] (0.003 µM); 0.919 in experiment [1] (0.03 µM); 0.818 in experiment [2] (first compound 0.0003 µM); 0.747 in experiment [2] (first compound 0.003 µM); 0.666 in experiment [2] (first compound 0.03 µM). The relative viability is 1.06 in experiment [6] (first compound 0.0003 µM); 0.993 in experiment [6] (first compound 0.003 µM); 1.04 in experiment [6] (first compound 0.03 µM); 0.486 in experiment [3] (first compound 0.0003 µM); 0.401 in experiment [3] (first compound 0.003 µM); 0.406 in experiment [3] (first compound 0.03 µM). Also, the relative viability in experiment [4] (first compound 0.0003 µM) was 0.494; in experiment [4] (first compound 0.003 µM) it was 0.448; in experiment [4] (first compound 0.03 µM) it was 0.47; in experiment [5] (first compound 0.0003 µM), 0.732; in experiment [5] (first compound 0.003 µM) it was 0.619; in experiment [5] (first compound 0.03 µM), 0.675.

Take LXF-289: the relative viability amounted to 1.04 in experiment [1] (0.0003 µM); 1.08 in experiment [1] (0.003 µM); 0.943 in experiment [1] (0.03 µM); 0.65 in experiment [2] (first compound 0.0003 µM); 0.747 in experiment [2] (first compound 0.003 µM); 0.407 in experiment [2] (first compound 0.03 µM). Besides, the relative viability in experiment [6] (first compound 0.0003 µM) was 1.03; in experiment [6] (first compound 0.003 µM), 0.99; in experiment [6] (first compound 0.03 µM), 0.808; in experiment [3] (first compound 0.0003 µM), 0.505; in experiment [3] (first compound 0.003 µM), 0.416; in experiment [3] (first compound 0.03 µM) it was 0.396. The relative viability in experiment [4] (first compound 0.0003 µM) was determined as 0.365; in experiment [4] (first compound 0.003 µM) it was 0.371; in experiment [4] (first compound 0.03 µM), 0.281; in experiment [5] (first compound 0.0003 µM), 0.771; in experiment [5] (first compound 0.003 µM), 0.905; in experiment [5] (first compound 0.03 µM), 0.561.

On to NCI-H358, for which the relative viability turned out to be 0.893 in experiment [1] (0.0003 µM); 0.561 in experiment [1] (0.003 µM); 0.388 in experiment [1] (0.03 µM); 0.136 in experiment [2] (first compound 0.0003 µM); 0.115 in experiment [2] (first compound 0.003 µM); 0.107 in experiment [2] (first compound 0.03 µM). The relative viability was 0.259 in experiment [3] (first compound 0.0003 µM); 0.211 in experiment [3] (first compound 0.003 µM); 0.145 in experiment [3] (first compound 0.03 µM); 0.199 in experiment [4] (first compound 0.0003 µM); 0.174 in experiment [4] (first compound 0.003 µM); 0.141 in experiment [4] (first compound 0.03 µM). Further, the relative viability in experiment [5] (first compound 0.0003 µM) is 0.573; in experiment [5] (first compound 0.003 µM) it was 0.546; in experiment [5] (first compound 0.03 µM), 0.272.

Turning to NCI-H1944, the relative viability in experiment [1] (0.0003 µM) worked out at 0.856; in experiment [1] (0.003 µM), 0.646; in experiment [1] (0.03 µM), 0.371; in experiment [2] (first compound 0.0003 µM), 0.355; in experiment [2] (first compound 0.003 µM) it was 0.246; in experiment [2] (first compound 0.03 µM), 0.197. The relative viability is 0.183 in experiment [3] (first compound 0.0003 µM); 0.148 in experiment [3] (first compound 0.003 µM); 0.126 in experiment [3] (first compound 0.03 µM); 0.384 in experiment [4] (first compound 0.0003 µM); 0.356 in experiment [4] (first compound 0.003 µM); 0.239 in experiment [4] (first compound 0.03 µM). The values for the relative viability in experiment [5] (first compound 0.0003 µM), in experiment [5] (first compound 0.003 µM) and in experiment [5] (first compound 0.03 µM) were 0.469, 0.359 and 0.29, respectively.

With CAL-12T, the relative viability in experiment [1] (0.0003 µM) came out at 1.12; in experiment [1] (0.003 µM), 1.1; in experiment [1] (0.03 µM) it was 0.594; in experiment [2] (first compound 0.0003 µM) it was 0.299; in experiment [2] (first compound 0.003 µM), 0.205; in experiment [2] (first compound 0.03 µM), 0.173. Also, the relative viability stood at 1.15 in experiment [6] (first compound 0.0003 µM); 1.06 in experiment [6] (first compound 0.003 µM); 0.484 in experiment [6] (first compound 0.03 µM); 0.543 in experiment [3] (first compound 0.0003 µM); 0.573 in experiment [3] (first compound 0.003 µM); 0.361 in experiment [3] (first compound 0.03 µM). The relative viability is 0.666 in experiment [5] (first compound 0.0003 µM), 0.386 in experiment [5] (first compound 0.003 µM) and 0.34 in experiment [5] (first compound 0.03 µM).

With NCI-H2170, the relative viability in experiment [1] (0.0003 µM) was 0.813; in experiment [1] (0.003 µM) it was 0.608; in experiment [1] (0.03 µM), 0.587; in experiment [2] (first compound 0.0003 µM), 0.801; in experiment [2] (first compound 0.003 µM), 0.545; in experiment [2] (first compound 0.03 µM), 0.303. Further, the relative viability in experiment [3] (first compound 0.0003 µM) is 0.459; in experiment [3] (first compound 0.003 µM), 0.432; in experiment [3] (first compound 0.03 µM) it was 0.375; in experiment [4] (first compound 0.0003 µM), 0.446; in experiment [4] (first compound 0.003 µM) it was 0.339; in experiment [4] (first compound 0.03 µM), 0.29. The relative viability came out at 0.716 in experiment [5] (first compound 0.0003 µM), 0.51 in experiment [5] (first compound 0.003 µM) and 0.418 in experiment [5] (first compound 0.03 µM).

Turning to ABC-1, the relative viability in experiment [1] (0.0003 µM) was 1.02; in experiment [1] (0.003 µM), 0.705; in experiment [1] (0.03 µM), 0.538; in experiment [6] (first compound 0.0003 µM), 0.324; in experiment [6] (first compound 0.003 µM) it was 0.299; in experiment [6] (first compound 0.03 µM), 0.246. The relative viability came to 0.221 in experiment [3] (first compound 0.0003 µM); 0.234 in experiment [3] (first compound 0.003 µM); 0.224 in experiment [3] (first compound 0.03 µM); 1.05 in experiment [4] (first compound 0.0003 µM); 0.99 in experiment [4] (first compound 0.003 µM); 0.742 in experiment [4] (first compound 0.03 µM). Further, the relative viability was 1.04 in experiment [5] (first compound 0.0003 µM), 0.76 in experiment [5] (first compound 0.003 µM) and 0.692 in experiment [5] (first compound 0.03 µM).
